Results reported in the supplement of paper PMC11208160.

Columns and labels:
[1] = recombinant barcode read abundance after kanamycin selection (control-corrected) (log10(CPM+1)); higher = more efficient recombination; sequences stand for … in AGTGCAGAGAAAATCGGCCAGTTTTCTCTGCCTGCAGTCCGCATGCCGT…ATTTATGCAGCGGACTGCCTTTCTCCCAAAGTGATAAACCGGACAGTATCATGGACCGGTTTTCCCGGTAATCCGTATTTGCAAGGTTGGTTTCACT; site = the 11-nt target
Procedure: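 Same pooled E. coli target screen (IS621 bridge recombinase, kanamycin selection, control-corrected CPM, mean of 2 biological replicates). Here the two core-binding nucleotides of the LTG and RTG of the bridge RNA target-binding loop are mutated. Target and donor CT cores are held constant, and the other 9 guide positions match the target. The target is read from the library oligo sequence. Molecule = full bridge RNA written as DNA: nt 1-80 from the library oligo, rest WT scaffold.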

[2] = recombinant barcode read abundance after kanamycin selection (control-corrected) (log10(CPM+1)); higher = more efficient recombination; sequences stand for … in AGTGCAGAGAAAATCGGCCAGTTTTCTCTGCCTGCAGTCCGCATGCCGT…AGATTTATGCAGCGGACTGCCTTTCTCCCAAAGTGATAAACCGGACAGTATCATGGACCGGTTTTCCCGGTAATCCGTATTTGCAAGGTTGGTTTCACT; site = the 11-nt target
Outline: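 In E. coli, a pooled library matched targets to IS621 bridge RNA target-binding loops and was introduced alongside a donor plasmid. Cells went onto chloramphenicol/ampicillin/kanamycin with 0.1 mM IPTG or onto chloramphenicol/ampicillin LB agar as control, in duplicate. Recombination efficiency, from recombinant-junction barcodes as counts per million, is averaged and control-corrected. It is reported as log10(CPM+1).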

Sequence	recombinant barcode read abundance (log10) [1]	recombinant barcode read abundance (log10) [2]
AAACACACATGGGTTCTAACCTGTTGCCTAG [AAACACACTAG_LTGcore_CA_RTGcore_CT] (site AAACACACTAG) (LTG core: CA, RTG core: CT)	0.327	–
AAACACACTTGGGTTCTAACCTGTTGCCTAA [AAACACACTAG_LTGcore_CT_RTGcore_TT] (site AAACACACTAG) (LTG core: CT, RTG core: TT)	1.12	–
AAACACACTTGGGTTCTAACCTGTTGCCTCC [AAACACACTAG_LTGcore_CT_RTGcore_GG] (site AAACACACTAG) (LTG core: CT, RTG core: GG)	1.45	–
AAACACACTTGGGTTCTAACCTGTTGCCTCG [AAACACACTAG_LTGcore_CT_RTGcore_CG] (site AAACACACTAG) (LTG core: CT, RTG core: CG)	1.01	–
AAACACACTTGGGTTCTAACCTGTTGCCTGC [AAACACACTAG_LTGcore_CT_RTGcore_GC] (site AAACACACTAG) (LTG core: CT, RTG core: GC)	0.456	–
AAACACAGCTGGGTTCTAACCTGTTGCCTGC [AAACACACTAG_LTGcore_GC_RTGcore_GC] (site AAACACACTAG) (LTG core: GC, RTG core: GC)	0.0607	–
AAACACAGTTGGGTTCTAACCTGTTGCCTAC [AAACACACTAG_LTGcore_GT_RTGcore_GT] (site AAACACACTAG) (LTG core: GT, RTG core: GT)	0.112	–
AAACACAGTTGGGTTCTAACCTGTTGCCTAG [AAACACACTAG_LTGcore_GT_RTGcore_CT] (site AAACACACTAG) (LTG core: GT, RTG core: CT)	0.804	–
AAACACATCTGGGTTCTAACCTGTTGCCTAG [AAACACACTAG_LTGcore_TC_RTGcore_CT] (site AAACACACTAG) (LTG core: TC, RTG core: CT)	0.222	–
AAACAGTATTGGGTTCTAACCTGTTGCCTAG [AAACAGTCTAG_LTGcore_AT_RTGcore_CT] (site AAACAGTCTAG) (LTG core: AT, RTG core: CT)	0.571	–
AAACAGTCCTGGGTTCTAACCTGTTGCCTAG [AAACAGTCTAG_LTGcore_CC_RTGcore_CT] (site AAACAGTCTAG) (LTG core: CC, RTG core: CT)	0.93	–
AAACAGTCGTGGGTTCTAACCTGTTGCCTAG [AAACAGTCTAG_LTGcore_CG_RTGcore_CT] (site AAACAGTCTAG) (LTG core: CG, RTG core: CT)	1.17	–
AAACAGTCTTGGGTTCTAACCTGTTGCCTAA [AAACAGTCTAG_LTGcore_CT_RTGcore_TT] (site AAACAGTCTAG) (LTG core: CT, RTG core: TT)	1.55	–
AAACAGTCTTGGGTTCTAACCTGTTGCCTCT [AAACAGTCTAG_LTGcore_CT_RTGcore_AG] (site AAACAGTCTAG) (LTG core: CT, RTG core: AG)	1.72	–
AAACAGTCTTGGGTTCTAACCTGTTGCCTTC [AAACAGTCTAG_LTGcore_CT_RTGcore_GA] (site AAACAGTCTAG) (LTG core: CT, RTG core: GA)	1.45	–
AAACAGTTATGGGTTCTAACCTGTTGCCTAG [AAACAGTCTAG_LTGcore_TA_RTGcore_CT] (site AAACAGTCTAG) (LTG core: TA, RTG core: CT)	0.0345	–
AAACAGTTATGGGTTCTAACCTGTTGCCTTA [AAACAGTCTAG_LTGcore_TA_RTGcore_TA] (site AAACAGTCTAG) (LTG core: TA, RTG core: TA)	0.0835	–
AAACATGATTGGGTTCTAACCTGTTGCCTAG [AAACATGCTAG_LTGcore_AT_RTGcore_CT] (site AAACATGCTAG) (LTG core: AT, RTG core: CT)	0.372	–
AAACATGCCTGGGTTCTAACCTGTTGCCTAG [AAACATGCTAG_LTGcore_CC_RTGcore_CT] (site AAACATGCTAG) (LTG core: CC, RTG core: CT)	0.55	–
AAACATGCCTGGGTTCTAACCTGTTGCCTGG [AAACATGCTAG_LTGcore_CC_RTGcore_CC] (site AAACATGCTAG) (LTG core: CC, RTG core: CC)	0.107	–
AAACATGGGTGGGTTCTAACCTGTTGCCTAG [AAACATGCTAG_LTGcore_GG_RTGcore_CT] (site AAACATGCTAG) (LTG core: GG, RTG core: CT)	0.427	–
TTGGCCTCTTGGGTTCTAACCTGTTGCCT (site GTGGCGTCTAG)	–	0.15
TTGGCCTCTTGGGTTCTAACCTGTTGCCT (site TTGGCCTCTAG)	–	1.27
TTGGCGACTTGGGTTCTAACCTGTTGCCA (site TTGACGACTTG)	–	0.221

Sequence	recombinant barcode read abundance (log10) [1]	recombinant barcode read abundance (log10) [2]
TTGGCGACTTGGGTTCTAACCTGTTGCCA (site TTGCCGACTTG)	–	0.0473
TTGGCGACTTGGGTTCTAACCTGTTGCCA (site TTGGCGACTTG)	–	0.118
TTGGCGACTTGGGTTCTAACCTGTTGCCA (site TTGTCGACTTG)	–	0.0276
TTGGGAGCTTGGGTTCTAACCTGTTGCTG (site TTCGGAGCTCA)	–	0.426
TTGGGAGCTTGGGTTCTAACCTGTTGCTG (site TTGGGAGCTCA)	–	2.92
TTGGTACCTTGGGTTCTAACCTGTTGCCT (site TTGGTACCTAG)	–	2.41
TTGGTACCTTGGGTTCTAACCTGTTGCCT (site TTGGTCCCTAG)	–	0.204
TTGGTACCTTGGGTTCTAACCTGTTGCCT (site TTGGTGCCTAG)	–	0.138
TTGGTACCTTGGGTTCTAACCTGTTGCCT (site TTGGTTCCTAG)	–	0.116
TTGGTAGCTTGGGTTCTAACCTGTTGCCT (site TTGGAAGCTAG)	–	0.255
TTGGTAGCTTGGGTTCTAACCTGTTGCCT (site TTGGCAGCTAG)	–	0.148
TTGGTAGCTTGGGTTCTAACCTGTTGCCT (site TTGGGAGCTAG)	–	0.127
TTGGTAGCTTGGGTTCTAACCTGTTGCCT (site TTGGTAGCTAG)	–	1.63
TTGGTGCCTTGGGTTCTAACCTGTTGCCT (site TTGGTACCTAG)	–	1.97
TTGGTGCCTTGGGTTCTAACCTGTTGCCT (site TTGGTCCCTAG)	–	0.0442
TTGGTGCCTTGGGTTCTAACCTGTTGCCT (site TTGGTGCCTAG)	–	2.13
TTGGTGCCTTGGGTTCTAACCTGTTGCCT (site TTGGTTCCTAG)	–	0.0399
TTGTACCCTTGGGTTCTAACCTGTTGCCT (site TTCTTCCCTAG)	–	0
TTGTACCCTTGGGTTCTAACCTGTTGCCT (site TTGTACCCTAG)	–	1.45
TTGTCGTCTTGGGTTCTAACCTGTTGCCT (site ATGTAGTCTAG)	–	0.0378
TTGTCGTCTTGGGTTCTAACCTGTTGCCT (site TTGTCGTCTAG)	–	1.25
TTGTGAGCTTGGGTTCTAACCTGTTGCGC (site AGTCACACTCT)	–	0.182
TTGTGAGCTTGGGTTCTAACCTGTTGCGC (site TTGTGAGCTGC)	–	1.68
